Results as given in patent publication US20090137565A1, “Method for treatment of movement disorders” (The Trustees of Columbia University in the City of New York, priority 2004, published 2009).

Key:
[1] = Single-patient GHB trial: tolerability / adverse events; assay type: in vivo, human
Method: All office visits and the UMRS scale were performed by the supervisory physician. The patient came to the office for five visits, each separated by two weeks (time 0, 2 weeks, 4 weeks, 6 weeks and 8 weeks). At each visit, the physician examined the patient, and inquired about any adverse events. The physician performed the UMRS while the patient was videotaped. Xyrem® was dispensed by the physician at each visit.
At the initial visit the UMRS was performed and videotaped, 1 gm of GHB was administered by mouth, and they were monitored in the office for one hour. They then took 1 gm twice daily for two weeks, at which time they returned to the office. One hour after receiving 2 grams of GHB, the UMRS was performed and videotaped and for the next two weeks they took 2 grams twice daily. Two weeks later, the UMRS was performed and videotaped one hour after receiving 3 grams of GHB, and after two weeks of 3 grams twice daily, the same procedure was performed after receiving 4 grams in the office. After taking 4 grams twice daily for two weeks, they returned for UMRS videotaping, and the decision was made to continue the target dose of 4 gm twice daily.
The clinical trial was designed with a very slow titration schedule, in order to prevent possible side effects such as sedation, worsening of ataxia or orthostasis. Like most forms of myoclonus, posthypoxic myoclonus disappears during sleep and it is therefore necessary to administer the drug during waking hours in order to observe its effects.

[2] = tested on: ethanol-responsive myoclonus (PHM, MD); assay: Five-patient open-label trial of sodium oxybate, blinded UMRS (patients #1-3); assay type: in vivo, human; details: for UMRS section 2 (myoclonus at rest) score: range 0-128; for UMRS section 1 (patient questionnaire) score: range 0-44; for UMRS section 6 (global disability score): range 0-4; for UMRS section 3 (stimulus sensitivity) score: range 0-17; for UMRS section 5 (functional tests) score: range 0-20, 0 gm score 20; for UMRS section 4 (myoclonus with action) score: range 0-160; for UMRS section 5 (functional tests, modified) score: range 0-28
Text: Five patients were enrolled in a trial from the Movement Disorders Division of Columbia University Medical Center during the fall of 2004. All patients were afflicted with hyperkinetic movement disorders that responded to ethanol (defined as a noticeable change to the patient), and all were refractory to treatment with conventional medications or could not tolerate them. The Medical Center's Institutional Review Board approved the trial, and written and verbal informed consent were obtained from all patients prior to enrollment.
The dose and timing of all other drugs were kept constant throughout the trial, and patients were not withdrawn from other medications. Patients #1-3 were examined and videotaped using the Unified Myoclonus Rating Scale (UMRS), and patients #4 and 5 were examined and videotaped using the Washington Heights Inwood Tremor Rating Scale (WHIGET) (see Appendix I). Frucht S. J., et al. Adv Neurol 89:361-76 (2002); Louis, E. D., et al. Mov Disord 16:89-93 (2001).
Side effects were defined as either minor or serious (leading to hospitalization) using good clinical practice standards (www.who.int/medicines/library/par/ggcp/GCPGuidePharmatrials), and patients were asked to report side effects at each visit. After initial examination and videotaping, patients were given 1 gm of sodium oxybate by mouth (2 ml of the standard 0.5 gm/ml solution dissolved in 60 ml of water). One hour later, the senior author repeated the examination and videotaping. […] After two weeks taking 2 gm twice daily, the procedure was repeated after a 3 gm office dose, and finally two weeks after receiving 3 gm twice daily, the procedure was repeated after a 4 gm office dose. The maximum dose allowed in the trial was 4 gm twice daily. Patients and the senior author determined at each visit whether or not to proceed to the next dose level, based principally on their ability to tolerate the most recent dose regimen. After deciding on a maximum tolerated dose, patients received a dose in the office 0.5 gm less and the examination was videotaped.
The entire videotape segments and patient-writing samples from each visit were copied, and were blinded to trial order and identifying features, and were randomly ordered for review using a random number table. A movement disorder expert blinded to trial design and dose schedule, scored each videotape. Sub-scores for each visit were calculated as described previously. Frucht S. J., et al. Adv Neurol 89:361-76 (2002). We modified section 5 of the UMRS in which functional performance (pouring water, using a soup spoon) is performed only with the dominant arm (section V). […] This increased the maximum score of section 5 of the UMRS from 20 to 28.

[3] = tested on: NREM and REM sleep; details: about 30-60 mg/kg doses, healthy human volunteers; cited from earlier work
[4] = patient 1, listed as sodium oxybate, monosodium salt
[5] = patient 2, 2.5 gm, 0 gm score 4

O=C([O-])CCCO.[Na+] [GHB, 4-hydroxybutanoic acid monosodium salt]
adverse effect reported by patient ([1]; after the first 1 gm dose): slight dizziness | tolerability ([1]; divided doses during the day): well tolerated | sedation ([1]; two daytime doses of 4 gm, concurrent clonazepam and levetiracetam): without significant sedation | UMRS section 2 (myoclonus at rest) score ([2]; patient 1 1 gm, 0 gm score 3): 3 | UMRS section 1 (patient questionnaire) score ([2]; patient 1 3 gm, 0 gm score 33): 31 | UMRS section 6 (global disability score) ([2]; patient 1, 1 gm, 0 gm score 4): 3 | UMRS section 3 (stimulus sensitivity) score ([2]; patient 1, 1 gm, 0 gm score 8): 3 | UMRS section 5 (functional tests) score ([2]; patient 1, 1 gm): 20 | UMRS section 4 (myoclonus with action) score ([2]; patient 1, 1 gm, 0 gm score 108): 96 | UMRS section 6 (global disability score) ([2]; patient 1, 2 gm, 0 gm score 4): 3 | UMRS section 3 (stimulus sensitivity) score ([2]; patient 1, 2 gm, 0 gm score 8): 1 | UMRS section 5 (functional tests) score ([2]; patient 1, 2 gm): 13 | UMRS section 2 (myoclonus at rest) score ([2]; patient 1, 2 gm, 0 gm score 3): 0 | UMRS section 4 (myoclonus with action) score ([2]; patient 1, 2 gm, 0 gm score 108): 64 | UMRS section 6 (global disability score) ([2]; patient 1, 2.5 gm, 0 gm score 4): 2 | UMRS section 3 (stimulus sensitivity) score ([2]; patient 1, 2.5 gm, 0 gm score 8): 2 | UMRS section 5 (functional tests) score ([2]; patient 1, 2.5 gm): 12 | UMRS section 2 (myoclonus at rest) score ([2]; patient 1, 2.5 gm, 0 gm score 3): 0 | UMRS section 4 (myoclonus with action) score ([2]; patient 1, 2.5 gm, 0 gm score 108): 54 | UMRS section 2 (myoclonus at rest) score ([2]; patient 1, 3 gm (asthma exacerbation visit), 0 gm score 3): 3 | UMRS section 6 (global disability score) ([2]; patient 1, 3 gm, 0 gm score 4): 3 | UMRS section 3 (stimulus sensitivity) score ([2]; patient 1, 3 gm, 0 gm score 8): 3 | UMRS section 5 (functional tests) score ([2]; patient 1, 3 gm): 15 | UMRS section 4 (myoclonus with action) score ([2]; patient 1, 3 gm, 0 gm score 108): 86 | Rx effect, UMRS section 4 (action myoclonus improved by) [2, 4]: 50% | Rx effect, UMRS section 5 (functional performance improved by) [2, 4]: 40% | Rx effect, UMRS section 4 ([2]; patient 2 (table b)): 88% | UMRS section 6 (global disability score) ([2]; patient 2, 1 gm, 0 gm score 1): 1 | UMRS section 3 (stimulus sensitivity) score ([2]; patient 2, 1 gm, 0 gm score 4): 2 | UMRS section 5 (functional tests, modified) score ([2]; patient 2, 1 gm, 0 gm score 10): 8 | UMRS section 2 (myoclonus at rest) score ([2]; patient 2, 1 gm, 0 gm score 4): 2 | UMRS section 4 (myoclonus with action) score ([2]; patient 2, 1 gm, 0 gm score 25): 29 | UMRS section 6 (global disability score) ([2]; patient 2, 2 gm, 0 gm score 1): 1 | UMRS section 3 (stimulus sensitivity) score ([2]; patient 2, 2 gm, 0 gm score 4): 2 | UMRS section 5 (functional tests, modified) score ([2]; patient 2, 2 gm, 0 gm score 10): 4 | UMRS section 2 (myoclonus at rest) score ([2]; patient 2, 2 gm, 0 gm score 4): 3 | UMRS section 4 (myoclonus with action) score ([2]; patient 2, 2 gm, 0 gm score 25): 9 | UMRS section 6 (global disability score) ([2]; patient 2, 2.5 gm, 0 gm score 1): 1 | UMRS section 3 (stimulus sensitivity) score [2, 5]: 0 | UMRS section 5 (functional tests, modified) score ([2]; patient 2, 2.5 gm, 0 gm score 10): 4 | UMRS section 2 (myoclonus at rest) score [2, 5]: 0 | UMRS section 4 (myoclonus with action) score ([2]; patient 2, 2.5 gm, 0 gm score 25): 3 | UMRS section 6 (global disability score) ([2]; patient 2, 3 gm, 0 gm score 1): 1 | UMRS section 3 (stimulus sensitivity) score ([2]; patient 2, 3 gm, 0 gm score 4): 0 | UMRS section 5 (functional tests, modified) score ([2]; patient 2, 3 gm, 0 gm score 10): 5 | UMRS section 2 (myoclonus at rest) score ([2]; patient 2, 3 gm, 0 gm score 4): 0 | UMRS section 4 (myoclonus with action) score ([2]; patient 2, 3 gm, 0 gm score 25): 11 | Rx effect, UMRS section 5 (functional performance improved by) ([2]; patient 2, listed as sodium oxybate, monosodium salt): 60% | Rx effect, UMRS section 4 ([2]; patient 3 (table c)): 57% | UMRS section 6 (global disability score) ([2]; patient 3, 1 gm, 0 gm score 1): 1 | UMRS section 3 (stimulus sensitivity) score ([2]; patient 3, 1 gm, 0 gm score 6): 2 | UMRS section 5 (functional tests, modified) score ([2]; patient 3, 1 gm, 0 gm score 12): 13 | UMRS section 2 (myoclonus at rest) score ([2]; patient 3, 1 gm, 0 gm score 15): 13 | UMRS section 4 (myoclonus with action) score ([2]; patient 3, 1 gm, 0 gm score 35): 25 | UMRS section 6 (global disability score) ([2]; patient 3, 2 gm, 0 gm score 1): 1 | UMRS section 3 (stimulus sensitivity) score ([2]; patient 3, 2 gm, 0 gm score 6): 3 | UMRS section 5 (functional tests, modified) score ([2]; patient 3, 2 gm, 0 gm score 12): 9 | UMRS section 2 (myoclonus at rest) score ([2]; patient 3, 2 gm, 0 gm score 15): 15 | UMRS section 4 (myoclonus with action) score ([2]; patient 3, 2 gm, 0 gm score 35): 26 | UMRS section 6 (global disability score) ([2]; patient 3, 4 gm, 0 gm score 1): 1 | UMRS section 3 (stimulus sensitivity) score ([2]; patient 3, 4 gm, 0 gm score 6): 1 | UMRS section 5 (functional tests, modified) score ([2]; patient 3, 4 gm, 0 gm score 12): 12 | UMRS section 1 (patient questionnaire) score ([2]; patient 3, 4 gm, 0 gm score 10): 5 | UMRS section 2 (myoclonus at rest) score ([2]; patient 3, 4 gm, 0 gm score 15): 10 | UMRS section 4 (myoclonus with action) score ([2]; patient 3, 4 gm, 0 gm score 35): 15 | Rx effect, UMRS section 5 (functional performance improved by) ([2]; patient 3, listed as sodium oxybate, monosodium salt): 25% | Patient self-assessment scores ([2]; patient #1): unchanged | writing and control of spoon ([2]; patient #1, one hour after 2.5 gm): able to write (although slowly) and their control of the spoon was improved | myoclonic jerks on writing, pouring, using a spoon ([2]; patient #2, after 3 gm): the amplitude and frequency of the jerks was diminished | walking ([2]; patient #3, after 4 gm): modestly improved | Patient self-assessment scores ([2]; patients #2 and 3): improved | Physician global assessment scores (UMRS part 6) ([2]; patients #2 and 3, mild (1 out of 4) throughout): remained unchanged | Action myoclonus (section 4) improved by ([2]; second of patients #1-3 'respectively' in the text (patient #2)): 57% | Action myoclonus (section 4) improved by ([2]; third of patients #1-3 'respectively' in the text (patient #3)): 88% | duration of normal sequence of NREM and REM sleep [3]: 2 to 3 h
